From patent US10105384B2, “Nucleic acids targeting TCTP for use in the treatment of chemo- or hormone-resistant cancers” (INSTITUT NATIONAL DE LA SANTE ET DE LA RECHERCHE MEDICALE …, priority 2010, dated 2018)
d = 2'-deoxy (DNA); r = 2'-OH (RNA)

How the values were obtained:
Format in all cases: cell-based, human
[1] = tested on: TCTP; assay: TCTP protein level by Western blot in PC-3 cells treated with siRNA or ASO
Experimental: Western Blot analysis was performed as described previously (Rocchi et al., 2004, Cancer Res. 64:6595-602) with 1:5000 rabbit anti-Hsp27 polyclonal antibody (Assay Designs, Villeurbanne, France), 1:2000 rabbit TCTP polyclonal antibody (Abcam Inc., Cambridge, UK), 1:250 rabbit anti-MSL1v1 polyclonal antibody (Abcam Inc.), 1:500 mouse anti-ubiquitin monoclonal antibody (Santa Cruz Biotechnology Inc., Heidelberg, Germany) or 1:1000 rabbit anti-caspase-3 polyclonal antibody (Cell Signalling Technology Inc., Danvers, USA). Loading levels were normalized using 1:5000 rabbit anti-glyceraldehyde-3-phosphate dehydrogenase polyclonal (Abcam Inc.) or 1:2500 mouse anti-vinculine monoclonal antibodies (Sigma Chemical Co., St Louis, Mo., USA). […]
To determine whether the inhibition of TCTP expression affects CR progression in vitro, ASO- or siRNA-induced inhibition of TCTP expression was determined by Western blot analysis. […] Total RNA was extracted and TCTP levels were analyzed by qRT-PCR. After the normalization of TCTP mRNA with 18S rRNA levels, results were analysed with the 2(-Delta Delta C(T)) Method (FIG. 5A). Each sample was analyzed in triplicate. ** differs from PC-3 transfected with control-siRNA (P≤0.01) and *** with ASO control (P≤0.001) using Statview software.

[2] = tested on: TCTP; assay: TCTP mRNA and protein expression tests in LNCaP and PC3 cells
Experimental: TCTP mRNA and protein expression tests were carried out in LNCaP and PC3 cells exposed to a TCTP ASO of SEQ ID NO: 2 or a TCTP siRNA of SEQ ID NO: 3.

[3] = tested on: caspase-3; assay: Caspase-3 cleavage by western blot in PC-3 cells; details: not in control treated cells
Experimental: Western Blot analysis was performed as described previously (Rocchi et al., 2004, Cancer Res. 64:6595-602) with 1:5000 rabbit anti-Hsp27 polyclonal antibody (Assay Designs, Villeurbanne, France), 1:2000 rabbit TCTP polyclonal antibody (Abcam Inc., Cambridge, UK), 1:250 rabbit anti-MSL1v1 polyclonal antibody (Abcam Inc.), 1:500 mouse anti-ubiquitin monoclonal antibody (Santa Cruz Biotechnology Inc., Heidelberg, Germany) or 1:1000 rabbit anti-caspase-3 polyclonal antibody (Cell Signalling Technology Inc., Danvers, USA). Loading levels were normalized using 1:5000 rabbit anti-glyceraldehyde-3-phosphate dehydrogenase polyclonal (Abcam Inc.) or 1:2500 mouse anti-vinculine monoclonal antibodies (Sigma Chemical Co., St Louis, Mo., USA).
Flow cytometry was used to quantify the percentage of cells in each cell cycle phase three days after the siRNA treatment. After the treatment of PC-3 cells with 5 nM TCTP siRNA for 1 day, the fraction of cells undergoing apoptosis (sub-G1/G0 fraction) was 25% higher after treatment with 5 nM TCTP siRNA compared with scrambled control siRNA (**, P≤0.01; FIG. 6, upper panel). Using TCTP ASO treatment alone, we found an increase of 75% in sub-G0G1 fraction (***, P≤0.001; FIG. 6, middle and bottom panel), enhanced by the 50 nM docetaxel treatment (90% in sub-G0-G1 fraction, ***, P≤0.001). […]

[4] = tested on: PC-3 cells; assay: Viability assay by Invitrogen Countess (trypan blue), PC-3 cells
Experimental: PC-3 cells were treated with 70, 100 or 200 nM of TCTP ASO or control. 3 days after, the cells were harvested, combined with 10 μl of trypan blue and counted with Invitrogen Countess. Viability, cell concentration and size were recorded for each sample following the manufacturer's instructions.
(§1) Flow cytometry was used to quantify the percentage of cells in each cell cycle phase three days after the siRNA treatment. After the treatment of PC-3 cells with 5 nM TCTP siRNA for 1 day, the fraction of cells undergoing apoptosis (sub-G1/G0 fraction) was 25% higher after treatment with 5 nM TCTP siRNA compared with scrambled control siRNA (**, P≤0.01; FIG. 6, upper panel). Using TCTP ASO treatment alone, we found an increase of 75% in sub-G0G1 fraction (***, P≤0.001; FIG. 6, middle and bottom panel), enhanced by the 50 nM docetaxel treatment (90% in sub-G0-G1 fraction, ***, P≤0.001). […] The fraction of PC-3 in S phase was 20 to 40% lower after TCTP siRNA or ASO treatments respectively compared to the scrambled controls (FIG. 6). […] The rate of apoptotic PC-3 cells after TCTP silencing with different ASO concentrations was explored with the Invitrogen countess (FIG. 6 and FIG. 7A). PC-3 cells were treated with 70, 100 or 200 nM of TCTP ASO or control. Cells were harvested 3 days after treatment and […] of trypan blue was added before analysis with Invitrogen Countess. […] Moreover, TCTP has been reported to interact with caspase-3, thereby inhibiting caspase-3 activation (Gnanasekar et al., 2009, Int J Oncol. 34:1241-6). In order to investigate the effect of TCTP silencing on caspase-3 cleavage and activity, PC-3 cells were treated daily with 100 nM TCTP or scrambled ASO for 2 days. Cells were harvested 2 days after and proteins were extracted for western blotting with a caspase-3 antibody that recognizes both full-length and cleaved caspase-3.

[5] = tested on: PC-3 cells; assay: Flow cytometry of propidium iodide-stained nuclei (apoptosis, cell cycle), PC-3 cells
Experimental: Flow cytometry of propidium iodide-stained nuclei was performed as described previously (Rocchi et al., 2004, Cancer Res. 64:6595-602). In brief, PC-3 cells were plated at the density of 10^6 cells into 10 cm dishes in DMEM supplemented with 10% FCS. To assess the effect of TCTP inhibition on apoptosis and cell cycle, cells were treated the day after seeding with 5 nM of siRNA TCTP or control and 100 nM of ASO TCTP or scrambled control for 48 h. Cells were then treated with 50 nM of docetaxel. After 24 h, the cells were analyzed for relative DNA content on a dual laser flow cytometer (FACSCalibur, Becton Dickinson Biosciences, Le Pont de Claix, France). Each assay was performed in triplicate.
as §1
PC3 cells were transfected with a TCTP siRNA of SEQ ID NO: 3. Cell proliferation and apoptosis were studied using respectively MTT (3-(4,5-dimethylthiazol-2-yl)-2,5-diphenyl tetrazolium bromure) assay and flow cytometry.
PC3 cells were transfected with a TCTP ASO of SEQ ID NO: 2. Cell proliferation and apoptosis were studied using respectively MTT assay and flow cytometry.

Row | Substance | inhibition of TCTP protein ([1]; ASO at 100 nM) | expression of TCTP (mRNA and protein) [2] | active cleaved caspase-3 fragments (17-20 kDa) [3] | rate of apoptotic cells ([4]; PC-3, 70 nM ASO, three days after transfection) | rate of apoptotic cells ([4]; PC-3, 100 nM ASO, three days after transfection) | rate of apoptotic cells ([4]; PC-3, 200 nM ASO, three days after transfection) | fraction of PC-3 in S phase lower than scrambled control ([5]; ASO treatment) | increase in sub-G0-G1 fraction ([5]; PC-3, TCTP ASO plus 50 nM docetaxel) | increase in sub-G0G1 fraction ([5]; PC-3, TCTP ASO treatment alone) | increase of the percentage of apoptotic cells ([5]; TCTP ASO, PC3, flow cytometry (summary, FIG. 13)) | inhibition of TCTP protein ([1]; siRNA at 5 nM) | rate of apoptotic cells ([4]; PC-3, TCTP siRNA) | fraction of cells undergoing apoptosis (sub-G1/G0 fraction) higher than scrambled control siRNA ([5]; PC-3, 5 nM siRNA for 1 day) | increase of the percentage of apoptotic cells ([5]; TCTP siRNA, PC3, flow cytometry (summary, FIG. 12)) | fraction of PC-3 in S phase lower than scrambled control ([5]; siRNA treatment)
1 | 5′-ACCAATGAGCGAGTCATCAA-3′ (phosphorothioate backbone, further chemistry not given here) [ASO10] | significant inhibition | decreases in a significant manner | presence of active cleaved caspase-3 fragments | 100% | 200% | 300% | 40% | 90% | 75% | 70% |  |  |  |  | 
2 | 5′-AACCCGUCCGCGAUCUCCCdGdG-3′ (AACCCGUCCGCGAUCUCCCGG; siRNA; sugars from the 5' end r19 d2, backbone not given here) [TCTP siRNA, from Qiagen] |  | decreases in a significant manner | presence of active cleaved caspase-3 fragments |  |  |  |  |  |  |  | significant inhibition | Same effects | 25% | 25.8% | 20%
